Key:
[1] = system: human umbilical-vein endothelial cells (HUVEC); experiment: Tube Formation Assay (TFA) Test, HUVEC in collagen gel; type: cell-based; settings: Homo sapiens, HUVEC, Tables 75-83; 0.32 mM sample solution; method as for Compounds 1 through 60; read-out: TFA Inhibition rate (%)
Summary of the method: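 Inhibition rate (%) of tube formation is computed from tube lengths against control (+) and control (-), measured after 20 h at 37 °C in M-199 with 20% FCS, 30 ng/ml b-FGF and 0.1 μM PMA. Samples were applied to HUVEC on collagen and covered by a second collagen layer (double-layer gel).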

HUFEC = experiment: Cell Migration Assay (CMA) Test, inhibitory rate with control (-) correction; type: cell-based, human; settings: Homo sapiens, 24 h, 125 μl of 0.32 mM sample solution in 4.0 ml medium, 80% or more = remarkable
Summary of the method: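 Confluent HUFEC monolayers were scratch-wounded, then cultured 24 h at 37 °C, 5% CO2 in M199 (2+) medium with compound added as 125 μl of a 0.32 mM solution (3.2% DMSO) per 4 ml. Giemsa-stained cells migrating into 1 mm×1 mm blocks counted; inhibition % calculated relative to control (+) and control (−) wells.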

Structure (SMILES)	inhibition at 320 µM (stock) [1] [%]	inhibition at 320 µM (stock) (HUFEC) [%]
COC(=O)C1=CO[C@@H](OC(=O)NCCc2ccc(O)c(OC)c2)[C@H]2[C@@H]1CC[C@@H]2C [I-248]	5.7	2.2
C[C@]12O[C@H]1C[C@@H]1C(C(=O)N3CCN(CCO)CC3)=CO[C@@H](OC(=O)NCCCl)[C@@H]12 [I-68]	9.2	65.6
COC(=O)C1=CO[C@@H](OC(=O)NCc2nc3ccccc3[nH]2)[C@@H]2C(C)=CC[C@H]12 [I-131]	7.2	19.5
COC(=O)C1=CO[C@@H](OC(=O)N2CC=CCC2)[C@@H]2C(C)=CC[C@H]12 [I-91]	5.1	21.6
CNC(=O)O[C@@H]1OC=C(C(N)=O)[C@H]2C[C@@H]3O[C@]3(C)[C@@H]12 [I-61]	18.9	82.1
CCNC(=O)O[C@@H]1OC=C(C(=O)OC)[C@H]2CC=C(C)[C@@H]12 [I-151]	38.1	35.9
CCOC(=O)CCCNC(=O)O[C@@H]1OC=C(C(=O)OC)[C@H]2CC=C(C)[C@@H]12 [I-135]	4.7	23.4
COC(=O)C1=CO[C@@H](OC(=O)N(C)CCN(C)C)[C@H]2[C@@H]1CC[C@@H]2C [I-189]	4.7	8.5
COC(=O)C1=CO[C@@H](OC(=O)Nc2cccc(C(F)(F)F)c2)[C@H]2[C@@H]1CC[C@@H]2C [I-277]	84.4	12.7
COC(=O)C1=CO[C@H](OC(=S)N(C)C)[C@H]2[C@@H]1C[C@@H]1O[C@]21C [I-285]	7.7	6.5
C=CCN(CC=C)C(=O)O[C@@H]1OC=C(C(=O)OC)[C@H]2CC[C@H](C)[C@@H]12 [I-230]	6.4	28.7
COC(=O)C1=CO[C@@H](OC(=O)NCc2ccc(F)cc2F)[C@@H]2C(C)=CC[C@H]12 [I-77]	7.2	5.9
CNC(=O)O[C@@H]1OC=C(C(=O)NCCS)[C@H]2C[C@@H]3O[C@]3(C)[C@@H]12 [I-64]	5.2	9.4
COC(=O)C1=COC[C@H]2[C@@H]1C[C@@H]1O[C@@]12CO [I-289]	17.1	9.4
COC(=O)C1=CO[C@@H](OC(=O)NCc2ccc(OC)cc2)[C@@H]2C(C)=CC[C@H]12 [I-83]	21.4	50
COC(=O)C1=CO[C@@H](OC(=O)NCCc2ccc(O)cc2)[C@@H]2C(C)=CC[C@H]12 [I-100]	23.3	21.9
COC(=O)C1=CO[C@@H](OC(=O)Nc2ccc(Cl)c(Cl)c2)[C@@H]2C(C)=CC[C@H]12 [I-163]	11.5	5.6
COC(=O)C1=CO[C@@H](OC(=O)NCc2ccccc2)[C@@H]2C(C)=CC[C@H]12 [I-80]	8.1	5.9
COC(=O)C1=CO[C@@H](OC(=O)N2CCN(c3cccc(C(F)(F)F)c3)CC2)[C@H]2[C@@H]1CC[C@@H]2C [I-235]	9.3	6.5

Structure (SMILES)	inhibition at 320 µM (stock) [1] [%]	inhibition at 320 µM (stock) (HUFEC) [%]
COC(=O)C1=CO[C@@H](OC(=O)NCCc2ccccc2F)[C@@H]2C(C)=CC[C@H]12 [I-82]	5.5	13.7
COC(=O)C1=CO[C@@H](OC(=O)NC2CCN(Cc3ccccc3)CC2)[C@@H]2C(C)=CC[C@H]12 [I-89]	31.3	9.9
CNC(=O)O[C@@H]1OC=C(C(=O)NC)[C@H]2CC=C(C)[C@@H]12 [I-310]	20.1	20.7
COC(=O)C1=CO[C@@H](OC(=O)NCCc2ccccn2)[C@@H]2C(C)=CC[C@H]12 [I-79]	4.7	13.7
COC(=O)C1=CO[C@@H](OC(=O)NCCCN2CCOCC2)[C@@H]2C(C)=CC[C@H]12 [I-124]	2.6	5.7
COC(=O)C1=COC[C@@H]2C(C)=CC[C@H]12 [I-302]	12.5	26.6
COC(=O)C1=CO[C@@H](OC(=O)N(C)CCc2ccc(OC)c(OC)c2)[C@@H]2C(C)=CC[C@H]12 [I-122]	9.1	10.3
COC(=O)C1=CO[C@@H](OC(=O)NCc2ccc(Br)cc2)[C@@H]2C(C)=CC[C@H]12 [I-143]	8.1	5.9
COC(=O)C1=CO[C@@H](OC(=O)NCCCc2ccccc2)[C@@H]2C(C)=CC[C@H]12 [I-112]	7.9	6.8
COC(=O)C1=CO[C@@H](OC(=O)Nc2ccc(Br)cc2)[C@@H]2C(C)=CC[C@H]12 [I-159]	9.8	39.5
COC(=O)C1=CO[C@@H](OC(=O)NCc2ccc(F)cc2F)[C@H]2[C@@H]1CC[C@@H]2C [I-195]	3.7	15.7
COC(=O)C1=CO[C@@H](OC(=O)Nc2ccc([N+](=O)[O-])cc2)[C@H]2[C@@H]1CC[C@@H]2C [I-269]	8.3	19.5
COC(=O)C1=CO[C@@H](OC(=O)NCCc2c[nH]c3ccccc23)[C@H]2[C@@H]1CC[C@@H]2C [I-220]	7.4	25
COC(=O)C1=COC[C@@H]2C(COC(=O)NCCCl)=CC[C@H]12 [I-296]	21.3	19.9
CNC(=O)OCC1=CC[C@@H]2C(C(=O)OC)=CO[C@@H](OC(=O)NC)[C@H]12 [I-287]	30.1	35.2
COC(=O)C1=CO[C@@H](OC(=O)N(C)CCN(C)C)[C@@H]2C(C)=CC[C@H]12 [I-86]	5.2	9.9
COC(=O)C1=CO[C@@H](OC(=O)N2CCSCC2)[C@H]2[C@@H]1CC[C@@H]2C [I-219]	30.6	6.3
CC1=CC[C@@H]2C(C(=O)O)=CO[C@@H](OC(=O)Nc3ccc(F)cc3F)[C@H]12 [I-308]	23.2	32.1
CNC(=O)O[C@@H]1OC=C(C(=O)Nc2nccs2)[C@H]2C[C@@H]3O[C@]3(C)[C@@H]12 [I-62]	28.4	10.6

Structure (SMILES)	inhibition at 320 µM (stock) [1] [%]	inhibition at 320 µM (stock) (HUFEC) [%]
CNC(=O)O[C@@H]1OC=C(C(=O)OC)[C@H]2CC[C@H](C)[C@@H]12 [I-254]	4.6	4.7
COC(=O)C1=CO[C@@H](OC(N)=O)[C@H]2[C@@H]1CC[C@@H]2C [I-179]	5.2	81.3
COC(=O)C1=CO[C@@H](OC(=O)NCCc2ccccc2)[C@@H]2C(C)=CC[C@H]12 [I-119]	4.2	18.8
COCCCNC(=O)O[C@@H]1OC=C(C(=O)OC)[C@H]2CC=C(C)[C@@H]12 [I-121]	9.4	7.1
COC(=O)C1=CO[C@@H](OC(=O)NC2Cc3ccccc3C2)[C@H]2[C@@H]1CC[C@@H]2C [I-247]	9.7	23.4
CONC(=O)O[C@@H]1OC=C(C(=O)OC)[C@H]2CC[C@H](C)[C@@H]12 [I-238]	17.8	5.9
COC(=O)C1=CO[C@@H](OC(=O)NCCc2cccs2)[C@@H]2C(C)=CC[C@H]12 [I-92]	15.2	8.1
COC(=O)C1=CO[C@@H](OC(=O)Nc2cccc(C(C)=O)c2)[C@H]2[C@@H]1CC[C@@H]2C [I-273]	17.5	3.8
COC(=O)C1=CO[C@@H](OC(=O)NCCCCl)[C@@H]2C(C)=CC[C@H]12 [I-142]	3.7	9.8
COC(=O)C1=CO[C@@H](OC(=O)NCc2ccc(OC)cc2)[C@H]2[C@@H]1CC[C@@H]2C [I-186]	5.5	6.3
COC(=O)C1=CO[C@@H](OC(=O)NC(CO)CO)[C@H]2[C@@H]1CC[C@@H]2C [I-249]	11.1	44
COC(=O)C1=CO[C@@H](OC(=O)NCc2ccc(OC(F)(F)F)cc2)[C@@H]2C(C)=CC[C@H]12 [I-106]	26.8	6.7
COC(=O)C1=CO[C@@H](OC(=S)N(C)C)[C@H]2[C@@H]1C[C@@H]1O[C@]21C [I-284]	23.1	32.5
COC(=O)C1=CO[C@@H](OC(=O)NCCc2ccccc2F)[C@H]2[C@@H]1CC[C@@H]2C [I-185]	4.9	15.6
COC(=O)C1=CO[C@@H](OC(=O)NCCO)[C@@H]2C(C)=CC[C@H]12 [I-84]	21.9	8.8
COC(=O)C1=COC[C@@H]2C(CSc3nc4ccccc4s3)=CC[C@H]12 [I-292]	23.5	57.9
COC(=O)C1=CO[C@@H](OC(=O)NCc2ccccn2)[C@H]2[C@@H]1CC[C@@H]2C [I-177]	15	5
CCN(CCO)C(=O)O[C@@H]1OC=C(C(=O)OC)[C@H]2CC=C(C)[C@@H]12 [I-97]	29.1	7.7
